Assay results reported in patent US6284754A, “Pharmaceutical compositions containing 1-oleylazacycloheptan-2-one as enhancing agent of transport across biological membranes” (Schwarz Pharma AG, priority 1992, dated 2001).

Experiments:
human dermal fibroblasts = test: Collagen contraction test (in vitro skin cell toxicity screening); type: cell-based; conditions: for IC50: Fibroblast, collagen sheets containing human dermal fibroblasts, read-out: IC50 (concentration at which shrinkage is 50% of the control); for toxicity (in words): compared with other azones
Procedure: Skin toxicity tests were performed using the so-called collagen contraction test (Ponec et al. Journal of Pharmaceutical Sciences Vol. 78, No. 9, September 1989 and Vol. 79, No. 4, April 1990). […] The concentration of the agent, at which the shrinkage is 50% of the control, is taken as the IC50, the "50% inhibition level".

[1] = sole anti-inflammatory agent, topical on human or animal skin, about 10 to 100%; cited from earlier work
[2] = Skin transport kinetics: nitroglycerin penetration through stratum corneum pretreated with 1-alkylazacycloheptan-2-ones; type: in vitro ADME, human; conditions: compared with other 1-alkylazacycloheptan-2-ones
Procedure: Human stratum corneum samples (18 mm in diameter) were obtained from fresh human skin (abdomen) by trypsinization. The stratum corneum samples were firstly prehydrated at 95% relative humidity (RH) over a saturated disodium hydrogen phosphate solution, then either submerged for 24 hours at 34° C. with 200 microliter of a 10% solution of an alkyl-aza-cycloheptan-one in propylene glycol by topical application, or directly used for a diffusion study.
The stratum corneum samples were subsequently sandwiched between silastic sheetings (127 micrometer thick silicone membranes, Dow Corning) which have been proven not to control the transport rate of the model drug used in the study, nitroglycerin. The thus obtained sandwiches were clamped in two-chamber flow-through diffusion cells and subjected to 24 hours diffusion experiments. The donor compartment having a volume of 16μl was flushed with a 0.05% nitroglycerin solution at a pumping rate of 35 ml/hr. […] Fractions of the acceptor fluid were collected at 1 hour intervals, and nitroglycerin was detected using a reversed phase HPLC procedure (chrom-sphere C18 100×30 mm column eluted at 22° C. (methanol:water=1:1) at a 1.1 ml/min flow rate (Spectroflow 400, Kratos.). The absorbance at 201 nm of the effluent was monitored on Waters 450 var. wavelength detector).

[3] = Differential thermal analysis (DTA) of pretreated stratum corneum; set-up: species or system human; conditions: 24 h pretreatment in enhancer solution
Procedure: For differential thermal analysis human stratum corneum samples were pretreated (after prehydration) by submersion in the in test 1 described enhancer solutions for 24 hours, using untreated prehydrated stratum corneum samples as controls. Differential thermal analysis of ca. 20 mg samples was then performed on a differential scanning calorimeter (Maple).

[4] = Freeze-fracture electron microscopy of pretreated stratum corneum; conditions: 24 h pretreatment with solution in propylene glycol
Procedure: For freeze-fracture electron microscopy stratum corneum samples were pretreated during 24 hours with solutions of azacycloheptanones in propylene glycol by applying about 200 microliter per cm^2 of the solution on the apical surface. Samples were then snapfrozen in melting nitrogen (method according to Umrath, J. Microsc. 101: 103 (1974)), cross-fractured (Holman et al., J. Invest. Dermatol, 94: 332 (1990) )in a Balzers Freeze Fracture apparatus (Balzers 400 BAF) at high vacuum. The fracture surfaces were then shadowed with Pt and overcast with a layer of carbon. Upon thawing, the samples were cleaned to obtain the surface replicas. These were scooped up on copper grids and examined in a transmission electron microscope (Philips 401, operated at 80 kV).

| Compound | IC50 (human dermal fibroblasts) [µM] | anti-inflammatory action, topical (in words) [1] | enhancement of nitroglycerin transport / percutaneous absorption (in words) [2] | enhancement of nitroglycerin transport / percutaneous absorption (in words) ([2]; listed as oleyl derivative) | influence on gel-liquid transition temperature and transition enthalpy (in words) [3] | transition enthalpy of the intercellular lipids (gel-liquid transition) ([3]; control 7 J.g-1) [J/g] | electron microscopic findings in stratum corneum (in words) [4] | toxicity (in words) (human dermal fibroblasts; listed as 1-oleyl-azacyclo-heptan-2-one) | toxicity (in words) (human dermal fibroblasts; listed as 1-oleylazacycloheptan-2-one) | toxicity (in words) (human dermal fibroblasts; listed as oleyl azone) |
| --- | --- | --- | --- | --- | --- | --- | --- | --- | --- | --- |
| CCCCCCCCCCCCN1CCCCCC1=O [C12, 1-dodecylazacycloheptan-2-one, reference compound] | 240 | capable of temporarily reducing the signs and symptoms of inflammation | – | – | – | – | – | – | – | – |
| CCCCCCCC/C=C\CCCCCCCCN1CCCCCC1=O [C18, 1-oleylazacycloheptan-2-one] | 800 | – | more potent enhancer for percutaneous absorption than the 1-alkylazacycloheptan-2-ones according to the prior art | by far the most potent enhancer with respect to nitroglycerin transport | strongly influences both the gel-liquid transition temperature of the intercellular lipids, and the corresponding transition enthalpy | 3.3 | penetrates deeply into the stratum corneum and induces the separation of a non-lamellar phase | moderately toxic | less toxic than the 1-dodecylazacycloheptan-2-one | almost the least toxic azone among the effective enhancers (from C10 up to C18), and less toxic than C12 azone |
